# Key:
# Assay type in all cases: in vivo
# [1] = test system: cocklebur (Xanthium pensylvanicum); experiment: Preemergence herbicidal activity, cocklebur
# Method in brief: (§1)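 Step one: plant crop and weed seeds in soil flats. Step two: spray the acetone-dissolved, water-diluted compound (carrier 50 gal/A, dose in lb/A) immediately for preemergence, or after two weeks' growth for postemergence. Step three: about two weeks on, rate phytotoxicity as percent killed.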
# marigold (Tagetes spp.) [2] = experiment: Preemergence herbicidal activity, marigold
# Method in brief: as §1
# [3] = test system: morningglory (Ipomoca spp.); experiment: Preemergence herbicidal activity, morningglory
# Method in brief: as §1
# [4] = test system: tomato (Lycopersicon esculentum); experiment: Preemergence herbicidal activity, tomato; conditions: Pre
# Method in brief: as §1
# [5] = test system: velvetleaf (Abutilon theophrasti); experiment: Preemergence herbicidal activity, velvetleaf; conditions: Pre
# Method in brief: as §1
# [6] = test system: barnyardgrass (Echinochloa crusgalli); experiment: Preemergence herbicidal activity, barnyardgrass; conditions: Pre
# Method in brief: (§2)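 Sown flats got a foliar or soil spray of compound in water-diluted acetone (carrier equivalent to 50 gallons/acre, rate in pounds per acre), given on the day of planting or, postemergence, once seedlings were two weeks old.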
# [7] = test system: downybrome (Bromus tectorum); experiment: Preemergence herbicidal activity, downybrome; conditions: Pre
# Method in brief: as §1
# foxtail (Setaria spp.) [8] = experiment: Preemergence herbicidal activity, foxtail; conditions: Pre
# Method in brief: as §1
# [9] = test system: yellow nutsedge (Cyperus esculentus); experiment: Preemergence herbicidal activity, yellow nutsedge
# Method in brief: as §1
# wild oats (Avena fatua) [10] = experiment: Preemergence herbicidal activity, wild oats; conditions: Pre
# Method in brief: as §1
# [11] = test system: cocklebur (Xanthium pensylvanicum); experiment: Postemergence herbicidal activity, cocklebur
# Method in brief: as §1
# marigold (Tagetes spp.) [12] = experiment: Postemergence herbicidal activity, marigold
# Method in brief: as §1
# [13] = test system: morningglory (Ipomoca spp.); experiment: Postemergence herbicidal activity, morningglory
# Method in brief: as §1
# [14] = test system: tomato (Lycopersicon esculentum); experiment: Postemergence herbicidal activity, tomato; conditions: Post
# Method in brief: as §1
# [15] = test system: velvetleaf (Abutilon theophrasti); experiment: Postemergence herbicidal activity, velvetleaf
# Method in brief: as §2
# [16] = test system: barnyardgrass (Echinochloa crusgalli); experiment: Postemergence herbicidal activity, barnyardgrass; conditions: Post
# Method in brief: as §2
# [17] = test system: downybrome (Bromus tectorum); experiment: Postemergence herbicidal activity, downybrome; conditions: Post
# Method in brief: as §1
# foxtail (Setaria spp.) [18] = experiment: Postemergence herbicidal activity, foxtail; conditions: Post
# Method in brief: as §1
# [19] = test system: yellow nutsedge (Cyperus esculentus); experiment: Postemergence herbicidal activity, yellow nutsedge
# Method in brief: as §1
# wild oats (Avena fatua) [20] = experiment: Postemergence herbicidal activity, wild oats; conditions: Post
# Method in brief: as §1
# [21] = Xanthium strumarium, pre-emergence, 336 h, 2 lb/A
# [22] = Ipomoea, pre-emergence, 336 h, 2 lb/A
# [23] = Solanum lycopersicum, pre-emergence, 336 h, 2 lb/A
# [24] = Abutilon theophrasti, pre-emergence, 336 h, 2 lb/A
# [25] = Echinochloa crus-galli, pre-emergence, 336 h, 2 lb/A
# [26] = Bromus tectorum, pre-emergence, 336 h, 2 lb/A
# [27] = Setaria, pre-emergence, 336 h, 2 lb/A
# [28] = Cyperus, pre-emergence, 336 h, 2 lb/A
# [29] = Avena fatua, pre-emergence, 336 h, 2 lb/A, read-out: % control, Wild oat
# [30] = Xanthium strumarium, post-emergence, 336 h, 2 lb/A
# [31] = Ipomoea, post-emergence, 336 h, 2 lb/A
# [32] = Solanum lycopersicum, post-emergence, 336 h, 2 lb/A
# [33] = Abutilon theophrasti, post-emergence, 336 h, 2 lb/A
# [34] = Echinochloa crus-galli, post-emergence, 336 h, 2 lb/A
# [35] = Bromus tectorum, post-emergence, 336 h, 2 lb/A
# [36] = Setaria, post-emergence, 336 h, 2 lb/A
# [37] = Cyperus, post-emergence, 336 h, 2 lb/A
# [38] = Avena fatua, post-emergence, 336 h, 2 lb/A, read-out: % control, Wild oat
smiles,measurement,setting,value
CCOC(=O)C(C)Oc1ccc([S+]([O-])c2ccc(C(F)(F)F)cc2)cc1 (centres unmarked) [Example 51],pest or weed control at 4483.4 g/ha,"[1]; Xanthium strumarium, pre-emergence, 336 h, 4 lb/A",0%
same,pest or weed control at 4483.4 g/ha,"marigold (Tagetes spp.) [2]; pre-emergence, 336 h, 4 lb/A",0%
same,pest or weed control at 4483.4 g/ha,"[3]; Ipomoea, pre-emergence, 336 h, 4 lb/A",0%
same,pest or weed control at 4483.4 g/ha,"[4]; Solanum lycopersicum, pre-emergence, 336 h, 4 lb/A",0%
same,pest or weed control at 4483.4 g/ha,"[5]; Abutilon theophrasti, pre-emergence, 336 h, 4 lb/A",0%
same,pest or weed control at 4483.4 g/ha,"[6]; Echinochloa crus-galli, pre-emergence, 336 h, 4 lb/A",0%
same,pest or weed control at 4483.4 g/ha,"[7]; Bromus tectorum, pre-emergence, 336 h, 4 lb/A",0%
same,pest or weed control at 4483.4 g/ha,"foxtail (Setaria spp.) [8]; Setaria, pre-emergence, 336 h, 4 lb/A",0%
same,pest or weed control at 4483.4 g/ha,"[9]; Cyperus, pre-emergence, 336 h, 4 lb/A",0%
same,pest or weed control at 4483.4 g/ha,"wild oats (Avena fatua) [10]; Avena fatua, pre-emergence, 336 h, 4 lb/A, read-out: % control, Wild oat",0%
same,pest or weed control at 4483.4 g/ha,"[11]; Xanthium strumarium, post-emergence, 336 h, 4 lb/A",0%
same,pest or weed control at 4483.4 g/ha,"marigold (Tagetes spp.) [12]; post-emergence, 336 h, 4 lb/A",0%
same,pest or weed control at 4483.4 g/ha,"[13]; Ipomoea, post-emergence, 336 h, 4 lb/A",0%
same,pest or weed control at 4483.4 g/ha,"[14]; Solanum lycopersicum, post-emergence, 336 h, 4 lb/A",0%
same,pest or weed control at 4483.4 g/ha,"[15]; Abutilon theophrasti, post-emergence, 336 h, 4 lb/A",0%
same,pest or weed control at 4483.4 g/ha,"[16]; Echinochloa crus-galli, post-emergence, 336 h, 4 lb/A",20%
same,pest or weed control at 4483.4 g/ha,"[17]; Bromus tectorum, post-emergence, 336 h, 4 lb/A",0%
same,pest or weed control at 4483.4 g/ha,"foxtail (Setaria spp.) [18]; Setaria, post-emergence, 336 h, 4 lb/A",0%
same,pest or weed control at 4483.4 g/ha,"[19]; Cyperus, post-emergence, 336 h, 4 lb/A",0%
same,pest or weed control at 4483.4 g/ha,"wild oats (Avena fatua) [20]; Avena fatua, post-emergence, 336 h, 4 lb/A, read-out: % control, Wild oat",20%
CCOC(=O)C(C)Oc1ccc(Sc2ccc(C(F)(F)F)cc2C#N)cc1 (centres unmarked) [Example 47],pest or weed control at 2241.7 g/ha,[1]; [21],0%
same,pest or weed control at 2241.7 g/ha,"marigold (Tagetes spp.) [2]; pre-emergence, 336 h, 2 lb/A",0%
same,pest or weed control at 2241.7 g/ha,[3]; [22],0%
same,pest or weed control at 2241.7 g/ha,[4]; [23],0%
same,pest or weed control at 2241.7 g/ha,[5]; [24],0%
same,pest or weed control at 2241.7 g/ha,[6]; [25],100%
same,pest or weed control at 2241.7 g/ha,[7]; [26],40%
same,pest or weed control at 2241.7 g/ha,foxtail (Setaria spp.) [8]; [27],95%
same,pest or weed control at 2241.7 g/ha,[9]; [28],0%
same,pest or weed control at 2241.7 g/ha,wild oats (Avena fatua) [10]; [29],100%
same,pest or weed control at 2241.7 g/ha,[11]; [30],0%
same,pest or weed control at 2241.7 g/ha,"marigold (Tagetes spp.) [12]; post-emergence, 336 h, 2 lb/A",0%
same,pest or weed control at 2241.7 g/ha,[13]; [31],0%
same,pest or weed control at 2241.7 g/ha,[14]; [32],0%
same,pest or weed control at 2241.7 g/ha,[15]; [33],0%
same,pest or weed control at 2241.7 g/ha,[16]; [34],100%
same,pest or weed control at 2241.7 g/ha,[17]; [35],99%
same,pest or weed control at 2241.7 g/ha,foxtail (Setaria spp.) [18]; [36],99%
same,pest or weed control at 2241.7 g/ha,[19]; [37],0%
same,pest or weed control at 2241.7 g/ha,wild oats (Avena fatua) [20]; [38],99%
"CC(Oc1ccc(Oc2ccc(C(F)(F)F)cc2Cl)cc1)C(=O)O (centres unmarked) [Example 14, Sodium 2-[4-(2-chloro-4-trifluoromethylphenoxy)phenoxy] propionate]","% control, Cocklebur","[1]; Pre, 2 lb/A",0%
same,"% control, Marigold","marigold (Tagetes spp.) [2]; Pre, 2 lb/A",0%
same,"% control, Morningglory","[3]; Pre, 2 lb/A",0%
same,"% control, Tomato",[4]; 2 lb/A,0%
same,"% control, Velvetleaf",[5]; 2 lb/A,0%
same,"% control, Barnyardgrass",[6]; 2 lb/A,100%
same,"% control, Downybrome",[7]; 2 lb/A,50%
same,"% control, Foxtail",foxtail (Setaria spp.) [8]; 2 lb/A,100%
same,"% control, Nutsedge","[9]; Pre, 2 lb/A",0%
same,"% control, Wild oat",wild oats (Avena fatua) [10]; 2 lb/A,40%
same,"% control, Cocklebur","[11]; Post, 2 lb/A",0%
same,"% control, Marigold","marigold (Tagetes spp.) [12]; Post, 2 lb/A",0%
same,"% control, Morningglory","[13]; Post, 2 lb/A",0%
same,"% control, Tomato",[14]; 2 lb/A,0%
same,"% control, Velvetleaf","[15]; Post, 2 lb/A",0%
same,"% control, Barnyardgrass",[16]; 2 lb/A,100%
same,"% control, Downybrome",[17]; 2 lb/A,20%
same,"% control, Foxtail",foxtail (Setaria spp.) [18]; 2 lb/A,95%
same,"% control, Nutsedge","[19]; Post, 2 lb/A",0%
same,"% control, Wild oat",wild oats (Avena fatua) [20]; 2 lb/A,80%
CCCCOC(=O)C(C)Oc1ccc(Oc2ccc(C(F)(F)F)cc2Cl)cc1 (centres unmarked) [Example 23],pest or weed control at 2241.7 g/ha,[1]; [21],0%
same,pest or weed control at 2241.7 g/ha,"marigold (Tagetes spp.) [2]; pre-emergence, 336 h, 2 lb/A",0%
same,pest or weed control at 2241.7 g/ha,[3]; [22],0%
same,pest or weed control at 2241.7 g/ha,[4]; [23],0%
same,pest or weed control at 2241.7 g/ha,[5]; [24],0%
same,pest or weed control at 2241.7 g/ha,[6]; [25],100%
same,pest or weed control at 2241.7 g/ha,[7]; [26],99%
same,pest or weed control at 2241.7 g/ha,foxtail (Setaria spp.) [8]; [27],100%
same,pest or weed control at 2241.7 g/ha,[9]; [28],30%
same,pest or weed control at 2241.7 g/ha,wild oats (Avena fatua) [10]; [29],80%
same,pest or weed control at 2241.7 g/ha,[11]; [30],0%
same,pest or weed control at 2241.7 g/ha,"marigold (Tagetes spp.) [12]; post-emergence, 336 h, 2 lb/A",30%
same,pest or weed control at 2241.7 g/ha,[13]; [31],20%
same,pest or weed control at 2241.7 g/ha,[14]; [32],99%
same,pest or weed control at 2241.7 g/ha,[15]; [33],40%
same,pest or weed control at 2241.7 g/ha,[16]; [34],100%
same,pest or weed control at 2241.7 g/ha,[17]; [35],99%
same,pest or weed control at 2241.7 g/ha,foxtail (Setaria spp.) [18]; [36],100%
same,pest or weed control at 2241.7 g/ha,[19]; [37],0%
same,pest or weed control at 2241.7 g/ha,wild oats (Avena fatua) [20]; [38],100%

# Source: patent publication US4335249A, “Herbicidal diphenyl ethers, sulfides, sulfoxides and sulfones” (Rohm and Haas Company, priority 1976, dated 1982)
